This note sets out measurements from US11613556B2, “Oxysterols and methods of use thereof” (Sage Therapeutics, Inc., priority 2016, dated 2023).

SMILES strings stand for the structures.

Chain of glutamate-activated channels of the GRIN1/2A subtype stably transfected in HEK 293 cells (Q12879 whole entry, looked up, other chains not shown): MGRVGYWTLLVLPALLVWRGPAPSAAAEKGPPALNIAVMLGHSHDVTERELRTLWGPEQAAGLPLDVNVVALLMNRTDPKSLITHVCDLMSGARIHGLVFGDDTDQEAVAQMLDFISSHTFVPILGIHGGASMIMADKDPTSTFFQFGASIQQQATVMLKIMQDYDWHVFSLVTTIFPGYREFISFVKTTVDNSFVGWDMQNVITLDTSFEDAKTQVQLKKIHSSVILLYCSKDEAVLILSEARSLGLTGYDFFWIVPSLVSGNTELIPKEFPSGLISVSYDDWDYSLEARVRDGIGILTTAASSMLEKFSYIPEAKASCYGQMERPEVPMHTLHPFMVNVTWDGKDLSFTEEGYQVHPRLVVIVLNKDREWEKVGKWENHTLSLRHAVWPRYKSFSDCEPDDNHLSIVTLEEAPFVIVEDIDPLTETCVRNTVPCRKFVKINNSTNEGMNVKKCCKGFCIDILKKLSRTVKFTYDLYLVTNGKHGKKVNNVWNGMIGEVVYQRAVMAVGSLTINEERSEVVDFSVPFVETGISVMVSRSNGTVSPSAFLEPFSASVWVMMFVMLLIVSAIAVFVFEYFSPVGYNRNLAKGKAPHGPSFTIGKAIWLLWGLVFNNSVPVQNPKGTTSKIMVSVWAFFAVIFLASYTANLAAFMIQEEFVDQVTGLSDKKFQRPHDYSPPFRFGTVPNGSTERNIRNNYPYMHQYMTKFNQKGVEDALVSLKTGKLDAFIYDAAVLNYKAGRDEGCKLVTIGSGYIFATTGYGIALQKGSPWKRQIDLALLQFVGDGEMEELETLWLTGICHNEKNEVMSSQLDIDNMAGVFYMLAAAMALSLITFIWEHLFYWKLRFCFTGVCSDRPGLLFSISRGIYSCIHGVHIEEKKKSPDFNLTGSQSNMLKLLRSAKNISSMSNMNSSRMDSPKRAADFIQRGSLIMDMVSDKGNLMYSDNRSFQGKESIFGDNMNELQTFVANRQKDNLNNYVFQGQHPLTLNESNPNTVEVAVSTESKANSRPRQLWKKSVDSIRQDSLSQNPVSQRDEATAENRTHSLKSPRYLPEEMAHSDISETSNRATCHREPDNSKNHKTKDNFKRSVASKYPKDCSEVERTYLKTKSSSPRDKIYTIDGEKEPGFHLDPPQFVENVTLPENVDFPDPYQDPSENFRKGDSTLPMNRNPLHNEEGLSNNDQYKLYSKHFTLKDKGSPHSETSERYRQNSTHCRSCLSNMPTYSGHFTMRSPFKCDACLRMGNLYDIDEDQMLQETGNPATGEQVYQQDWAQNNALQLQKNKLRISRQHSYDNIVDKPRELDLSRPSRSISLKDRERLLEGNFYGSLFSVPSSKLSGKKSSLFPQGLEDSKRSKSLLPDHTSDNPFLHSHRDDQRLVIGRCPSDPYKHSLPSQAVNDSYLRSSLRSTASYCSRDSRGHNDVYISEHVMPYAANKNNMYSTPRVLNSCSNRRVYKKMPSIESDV

This test deals with glutamate-activated channels of the GRIN1/2A subtype stably transfected in HEK 293 cells (Homo sapiens (Human), UniProt Q05586+Q12879). The test is described as follows: Automated patch-clamp system (QPatch HTX), percent potentiation at 1 μM. The format is cell-based. The settings on record: HEK293, 1 μM test compound, 300 μM NMDA with 8 μM glycine, HEK 293 GRIN1/2A, read-out: GluN2A PCA % potentiation at 1 μM. On the procedure:
NMDA potentiation in mammalian cells which expressed NMDA receptors was assessed using the automatic patch-clamp system can be used determine the NAM activity of compounds as described below. An whole cell patch-clamp system can be used determine the PAM activity of compounds as described below.
Automated Patch-Clamp System (OPatch HTX):
In this study, HEK 293 cells stably transfected with glutamate-activated channels of the GRIN1/2A subtype will be used together with submaximal NMDA concentrations (300 μM NMDA, co-application with 8 μM Glycine) to investigate the negative allosteric modulation of the test compounds.
In general, cells will be passaged at a confluence of about 80% to […]. For electrophysiological measurements cells will be harvested at a confluence of about 80% to 90% from sterile culture flasks containing culture complete medium. Cells will be transferred as suspension in PBS to the QPatch 16X or QPatch HTX system to the centrifuge/washer directly.
Standard Laboratory Conditions: Cells will be incubated at 37° C. in a humidified atmosphere with 5% CO2 (rel. humidity about 95%).
Culture media: The cells will be continuously maintained in and passaged in sterile culture flasks containing a 1:1 mixture of Dulbecco's modified eagle medium and nutrient mixture F-12 (D-MEM/F-12 1×, liquid, with L-Glutamine) supplemented with 10% fetal bovine serum, 1% Penicillin/Streptomycin solution, and 50 μM AP-5 blocker.
Antibiotics: The complete medium as indicated above is supplemented with 100 μg/mL hygromycin, 15 μg/mL blasticidin and 1 μg/mL puromycin.
Induction of Expression: 2.5 μg/mL tetracycline is added 24 h before start of experiments.
Dose levels are in terms of test compounds, as supplied. Vehicle will be added to achieve a stock concentration of 10 mM (storage at −10° C. to −30° C.). A further stock solutions of 1.0 mM will be prepared in DMSO. Details of stock solution usage (thawing, dose formulations) will be documented in the raw data. The time period of stock solution usage will be detailed in the report.
Test Compound Concentrations
One test concentration of 1.0 μM will be tested.
All test solutions will be prepared by diluting the stock solutions with either Mg-free bath solution only or Mg-free bath solution containing NMDA (300 μM) and glycine (8.0 μM) shortly prior to the electrophysiological experiments and kept at room temperature (19° C. to 30° C.) when in use. 0.1% DMSO will be used as vehicle.
Frequency of preparation: For each test concentration, fresh solutions of test compounds will be prepared every day.
Stability of dose formulation: All preparation times will be documented in the raw data. Any observations regarding instability of test compounds will be mentioned in the raw data.
Storage of dose formulation: On the day of experimentation dose formulations will be maintained at room temperature (19° C. to 30° C.) when in use.
For preparing the experiments and for formation of the giga-ohm-seal, the following standard bath solution will be used:
Sodium Chloride: 137 mM; Potassium Chloride: 4 mM; Calcium Chloride: 1.8 mM; Magnesium Chloride: 1 mM; HEPES: 10 mM; D-Glucose: 10 mM; Cremophor: 0.02%; pH (NaOH): 7.4
The 1× bath solution will be prepared by diluting 10× bath solution without Glucose and 100× Glucose solution with water at least every 7 days. Both stock solutions have been prepared prior to the experimental start of the present study and stored at 1° C. to 9° C. (10× bath solution) or −10° C. to −30° (100× Glucose solution). The batch number(s) of the bath solution(s) used in the experiments will be documented in the raw data. When in use, the 1× bath solution will be kept at room temperature (19° C. to 30° C.). When not in use, the 1× bath solution will be stored at 1° C. to 9° C.
After the giga-seal was formed the following Mg-free bath solution will be used:
Sodium Chloride: 137 mM; Potassium Chloride: 4 mM; Calcium Chloride; 2.8 mM; HEPES: 10 mM; D-Glucose: 10 mM; Cremophor: 0.02%; pH (NaOH): 7.4 […]
A general note: The patch-clamp technique gives a direct electrical read-out from membranes.
For the compound `CC[C@]1(O)CC[C@@]2(C)[C@H](CC[C@@H]3[C@@H]2CC[C@]2(C)[C@@H]([C@H](C)[C@@H](O)CCC(C)C)CC[C@@H]32)C1` [Compound 64, (3S,5R,8R,9S,10S,13S,14S,17R)-3-ethyl-17-((2S,3S)-3-hydroxy-6-methylheptan-2-yl)-10,13-dimethylhexadecahydro-1H-cyclopenta[a]phenanthren-3-ol], the activation at 1 µM is -40 to -10%.

Turning to `CC[C@]1(O)CC[C@@]2(C)[C@@H](CC[C@@H]3[C@@H]2CC[C@]2(C)[C@@H]([C@H](C)[C@@H](O)C(C)C)CC[C@@H]32)C1` [Compound 65, (3S,5S,8R,9S,10S,13S,14S,17R)-3-ethyl-17-((2S,3S)-3-hydroxy-4-methylpentan-2-yl)-10,13-dimethylhexadecahydro-1H-cyclopenta[a]phenanthren-3-ol], the activation at 1 µM was -40 to -10%. With `CC[C@]1(O)CC[C@@]2(C)C(=CC[C@H]3[C@@H]4CC[C@H]([C@H](C)[C@@H](O)CC5(C)COC5)[C@@]4(C)CC[C@@H]32)C1` [Compound 70, (3S,8S,9S,10R,13S,14S,17R)-3-ethyl-17-((2S,3S)-3-hydroxy-4-(3-methyloxetan-3-yl)butan-2-yl)-10,13-dimethyl-2,3,4,7,8,9,10,11,12,13,14,15,16,17-tetradecahydro-1H-cyclopenta[a]phenanthren-3-ol], the activation at 1 µM is -40 to -10%. The figure for `COC[C@]1(O)CC[C@@]2(C)[C@H](CC[C@@H]3[C@@H]2CC[C@]2(C)[C@@H]([C@H](C)[C@H](O)C(F)(F)F)CC[C@@H]32)C1` [Compound 71, (3S,5R,8R,9S,10S,13S,14S,17R)-3-(methoxymethyl)-10,13-dimethyl-17-((2S,3S)-4,4,4-trifluoro-3-hydroxybutan-2-yl)hexadecahydro-1H-cyclopenta[a]phenanthren-3-ol] is -40 to -10%. With `CC(C)CC[C@H](O)[C@@H](C)[C@H]1CC[C@H]2[C@@H]3CC[C@H]4C[C@@](C)(O)CC[C@@H]4[C@H]3CC[C@]12C` [Compound 74, (3S,5S,8R,9R,10S,13S,14S,17R)-17-((2S,3S)-3-hydroxy-6-methylheptan-2-yl)-3,13-dimethylhexadecahydro-1H-cyclopenta[a]phenanthren-3-ol], the activation at 1 µM was -40 to -10%. The figure for `CC(C)CC[C@H](O)[C@@H](C)[C@H]1CC[C@H]2[C@@H]3CC=C4C[C@@](C)(O)CC[C@@H]4[C@H]3CC[C@]12C` [Compound 80, (3S,8R,9S,10R,13S,14S,17R)-17-((2S,3S)-3-hydroxy-6-methylheptan-2-yl)-3,13-dimethyl-2,3,4,7,8,9,10,11,12,13,14,15,16,17-tetradecahydro-1H-cyclopenta[a]phenanthren-3-ol] is -40 to -10%; for `CC[C@]1(O)CC[C@@]2(C)C(=CC[C@H]3[C@@H]4CC[C@H]([C@H](C)[C@H](O)C(F)(F)F)[C@@]4(C)CC[C@@H]32)C1` [Compound 81, (3S,8S,9S,10R,13S,14S,17R)-3-ethyl-10,13-dimethyl-17-((2S,3S)-4,4,4-trifluoro-3-hydroxybutan-2-yl)-2,3,4,7,8,9,10,11,12,13,14,15,16,17-tetradecahydro-1H-cyclopenta[a]phenanthren-3-ol] it is -40 to -10%. The figure for `CC(C)CC[C@@H](O)[C@@H](C)[C@H]1CC[C@H]2[C@@H]3CC=C4C[C@@](C)(O)CC[C@@H]4[C@H]3CC[C@]12C` [Compound 83, (3S,8R,9S,10R,13S,14S,17R)-17-((2S,3R)-3-hydroxy-6-methylheptan-2-yl)-3,13-dimethyl-2,3,4,7,8,9,10,11,12,13,14,15,16,17-tetradecahydro-1H-cyclopenta[a]phenanthren-3-ol] is -40 to -10%; for `CC(C)CC[C@@H](O)[C@@H](C)[C@H]1CC[C@H]2[C@@H]3CC[C@H]4C[C@](O)(C(F)(F)F)CC[C@]4(C)[C@H]3CC[C@]12C` [Compound 85, (3S,5S,8R,9S,10S,13S,14S,17R)-17-((2S,3R)-3-hydroxy-6-methylheptan-2-yl)-10,13-dimethyl-3-(trifluoromethyl)hexadecahydro-1H-cyclopenta[a]phenanthren-3-ol] it is -10 to 10%.

For the compound `CC[C@]1(O)CC[C@@]2(C)[C@@H](CC[C@@H]3[C@@H]2CC[C@]2(C)[C@@H]([C@H](C)[C@@H](O)C4CCOCC4)CC[C@@H]32)C1` [Compound 86, (3S,5S,8R,9S,10S,13S,14S,17R)-3-ethyl-17-((1S,2S)-1-hydroxy-1-(tetrahydro-2H-pyran-4-yl)propan-2-yl)-10,13-dimethylhexadecahydro-1H-cyclopenta[a]phenanthren-3-ol], the activation at 1 µM is -40 to -10%. The figure for `CC(C)CC[C@@H](O)[C@@H](C)[C@H]1CC[C@H]2[C@@H]3CC[C@H]4C[C@@](C)(O)CC[C@@H]4[C@H]3CC[C@]12C` [Compound 88, (3S,5S,8R,9R,10S,13S,14S,17R)-17-((2S,3R)-3-hydroxy-6-methylheptan-2-yl)-3,13-dimethylhexadecahydro-1H-cyclopenta[a]phenanthren-3-ol] is -40 to -10%; for `CC[C@]1(O)CC[C@@]2(C)[C@@H](CC[C@@H]3[C@@H]2CC[C@]2(C)[C@@H]([C@H](C)[C@H](O)C4CC4)CC[C@@H]32)C1` [Compound 90, (3S,5S,8R,9S,10S,13S,14S,17R)-17-((1R,2S)-1-cyclopropyl-1-hydroxypropan-2-yl)-3-ethyl-10,13-dimethylhexadecahydro-1H-cyclopenta[a]phenanthren-3-ol] it is -10 to 10%; for `C[C@H]([C@H](C)O)[C@H]1CC[C@H]2[C@@H]3CC[C@H]4C[C@](O)(C(F)(F)F)CC[C@]4(C)[C@H]3CC[C@]12C` [Compound 91, (3S,5S,8R,9S,10S,13S,14S,17R)-17-((2S,3S)-3-hydroxybutan-2-yl)-10,13-dimethyl-3-(trifluoromethyl)hexadecahydro-1H-cyclopenta[a]phenanthren-3-ol] it is -40 to -10%.

On to `COC[C@]1(O)CC[C@@]2(C)C(=CC[C@H]3[C@@H]4CC[C@H]([C@H](C)[C@@H](O)C(F)(F)F)[C@@]4(C)CC[C@@H]32)C1` [Compound 95, (3S,8S,9S,10R,13S,14S,17R)-3-(methoxymethyl)-10,13-dimethyl-17-((2S,3R)-4,4,4-trifluoro-3-hydroxybutan-2-yl)-2,3,4,7,8,9,10,11,12,13,14,15,16,17-tetradecahydro-1H-cyclopenta[a]phenanthren-3-ol], for which the activation at 1 µM was less than -40%. The result for `C[C@@H]([C@H]1CC[C@H]2[C@@H]3CC[C@@H]4C[C@@](C)(O)CC[C@]4(C)[C@H]3CC[C@]12C)[C@H](O)C(F)(F)F` [Compound 97, (3S,5R,8R,9S,10S,13S,14S,17R)-3,10,13-trimethyl-17-((2S,3S)-4,4,4-trifluoro-3-hydroxybutan-2-yl)hexadecahydro-1H-cyclopenta[a]phenanthren-3-ol] reads -40 to -10%.
